According to PMC4513902, “Evaluation of a new radiolabeled bombesin derivative with ^99mTc as potential targeted tumor imaging agent” (Journal of Radioanalytical and Nuclear Chemistry, 2013):
Where two headings read alike, the source gives them in different places.

Columns and labels:
PC-3 tumor cell = experiment: Efflux of radiopeptide from PC-3 tumor cells; type: cell-based, human; conditions: after 4 h
[1] = test system: human GRP receptor cell line PC-3; experiment: Internalization assay in PC-3 cells; type: cell-based; conditions: 1 million cells per well, about 150 kBq (2.5 pmol total peptide) per well, acid resistant fraction, gamma counter
Experimental: The human androgen-independent prostate carcinoma cell line PC-3 was obtained from National Cell Bank of Iran (NCBI) affiliated to Pasteur Institute of Iran. The cells were grown in DMEM supplemented with 10 % (v/v) fetal bovine serum (FBS), 1 % L-glutamine (2 mM),1 % penicillin(100 IU/ml)/streptomycin(100 μg/ml) and 1 % amphotericin B(0.25 μg/ml). The cells were incubated at 37 °C in a humidified atmosphere containing 5 % CO2 and were subcultured weekly detaching with trypsin/EDTA solution (0.25 %).
Medium was removed from the 6-well plates contain PC-3 cells with density of 1 million cells per well and cells were washed once with 2 ml of internalization medium (DMEM with 1 % FBS). Furthermore, 1.5 ml internalization medium was added to each well, and the plates were incubated at 37 °C for about 1 h. Afterwards, about 150 kBq (2.5 pmol total peptide mass per well) was added to the medium, and the cells were incubated at 37 °C for various time periods. To determine nonspecific internalization, we incubated cells with the radioligand in the presence of 150 μl, 1 μmol/l Bombesin. The cellular uptake was stopped at appropriate time periods (30 min, 1 h, 2 h and 4 h) by removing medium from the cells and washing twice with 1 ml of ice-cold phosphate-buffered saline (PBS). […] The culture medium, the receptor-bound and internalized fractions were measured radiometrically in a gamma counter.

[2] = Radiochemical stability post labeling at room temperature; type: physicochemical
Human serum stability = type: in vitro ADME
Experimental: To 1 mL of freshly prepared human serum, we added 100 μl (14.8–29.6 MBq) radiolabeled BB derivative and mixture was incubated at 37 °C. 100 μl aliquots was removed and treated with 200 μl of ethanol at different times up to 24 h. Sample was centrifuged at 3,000 rpm for 15 min to precipitate serum proteins. The supernatant was filtered through a 0.20 μm pore filter and analyzed with RP-HPLC Gradient I to determine radiochemical stability.

[3] = Biodistribution in nude mice bearing PC-3 tumors; type: in vivo, mouse
Experimental: Animal experiments were performed in compliance with the regulations of our institution and with generally accepted guidelines governing such a work. A suspension of human PC-3 cells (1 × 10^7) in PBS buffer was subcutaneously injected in the right flank of each nude mouse. Seven to 10 days after inoculation, the tumors were inducted and then an activity of 20 MBq (0.35 nmol) of ^99mTc-Bombesin was injected via the femoral vein. In order to determine the non-specific uptake of the radiopeptides, in receptor-positive organs, a group of 3 animals were injected with 100 μg cold peptide in 50 μl saline as a co-injection with the radiopeptides (blocked animals). After 1, 4 and 24 h, the mice in groups of 3 animals were scarified, organs of interest were collected, weighed and radioactivity was measured in a gamma counter. The percentage of the injected dose per gram (% ID/g) was calculated for each tissue.

[4] = test system: human GRP receptor cell line PC-3; conditions: after 4 h in PC-3; previous compound; cited from earlier work
Source text: Compare with our pervious compound [^99mTc-tricine-HYNIC^0-D-Tyr^6-D-Trp^8]

[5] = 1 h after injection, nude mice with PC-3 tumor, 20 MBq (0.35 nmol) via femoral vein, n = 3
[6] = 4 h, unblocked vs. blocked mice, P < 0.05

| Substance | efflux rate of radiopeptide from PC-3 tumor cell (PC-3 tumor cell) | internalization into PC-3 cells ([1]; 0.5 h incubation at 37 °C, mean ± SD) [%] | internalization into PC-3 cells ([1]; 1 h incubation at 37 °C, three independent experiments with triplicates) [%] | time stable post labeling (radiochemical stability) [2] [h] | radiochemical purity remaining in human serum (Human serum stability; after 24 h in freshly prepared human serum, 37 °C, 100 μl (14.8–29.6 MBq) in 1 mL serum, ethanol precipitation, RP-HPLC Gradient I) [%] | time of good stability in human serum (Human serum stability; human serum at 37 °C, no significant impurities detected by HPLC) | uptake in PC-3 tumor [3, 5] [% ID/g] | uptake in pancreas [3, 5] [% ID/g] | Reduction of uptake in pancreas by blocking with cold peptide [3, 6] [%] | Reduction of uptake in tumor by blocking with cold peptide [3, 6] [%] | internalization into PC-3 cells [4] [%] |
| --- | --- | --- | --- | --- | --- | --- | --- | --- | --- | --- | --- |
| [^99mTc/tricine/HYNIC^0, D-Tyr^5-D-Tyr^6-D-Phe^13] Bombesin (5–14) NH2 [new bombesin derivative labeled with ^99mTc via HYNIC and tricine as a coligand] | acceptable intercellular trapping | 2.3 ± 0.9 | 5.3 ± 1.1 | ≥ 24 | > 90 | at least 24 h | 2.11 ± 0.18 | 1.78 ± 0.09 | 76 | 82 | – |
| [^99mTc-tricine-HYNIC^0-D-Tyr^6-D-Trp^8] BB (6–14) | – | – | – | – | – | – | – | – | – | – | 10.7 ± 1.2 |
